Calls of active or inactive are those of the source. The rule behind the calls is not given here.
Experiments:
RAW264.7 [1] = assay: Inhibition of LPS-induced TNFalpha production in mouse RAW264.7 cells at 50 uM preincubated for 2 hrs followed by LPS treatment for 24 hrs by RT-qPCR analysis relative to control; type: functional; settings: time 26 hrs
RAW264.7 [2] = assay: Inhibition of LPS-induced TNFalpha production in mouse RAW264.7 cells preincubated for 2 hrs followed by LPS treatment for 24 hrs by RT-qPCR analysis; type: functional, cell-based
Mus musculus [3] = assay: Anti-ulcerative colitis activity against DSS-induced ulcerative colitis C57BL/6 mouse model assessed as body weight recovery rate at 50 mg/kg, IG via gavage administered for 7 days and measured everyday relative to control; type: functional; settings: time 7 day
Mus musculus [4] = assay: Anti-ulcerative colitis activity in DSS-induced C57BL/6 mouse ulcerative colitis model assessed as colon length recovery ratio at 50 mg/kg, IG via gavage measured after 7 days relative to control; type: functional; settings: time 7 day
Mus musculus [5] = assay: Anti-ulcerative colitis activity in DSS-induced C57BL/6 mouse ulcerative colitis model assessed as histopathological score recovery ratio at 50 mg/kg, IG via gavage measured after 7 days by H and E staining method relative to control; type: functional; settings: time 7 day
Mus musculus [6] = assay: Antiinflammatory activity against DSS-induced C57BL/6 mouse model of acute ulcerative colitis assessed as inhibition ratio of TNF-alpha protein expression at 50 mg/kg, IG via gavage measured after 7 days by ELISA relative to control; type: functional; parameters: scale not given: the % may be the effect or the level left; settings: time 7 day
Mus musculus [7] = assay: Antiinflammatory activity against DSS-induced C57BL/6 mouse model of acute ulcerative colitis assessed as inhibition ratio of IL-1beta protein expression at 50 mg/kg, IG via gavage measured after 7 days by ELISA relative to control; type: functional; parameters: scale not given: the % may be the effect or the level left; settings: time 7 day
Mus musculus [8] = assay: Antiinflammatory activity against DSS-induced C57BL/6 mouse model of acute ulcerative colitis assessed as inhibition ratio of IL-6 protein expression at 50 mg/kg, IG via gavage measured after 7 days by ELISA relative to control; type: functional; parameters: scale not given: the % may be the effect or the level left; settings: time 7 day
Mus musculus [9] = assay: Antiinflammatory activity against DSS-induced C57BL/6 mouse model of acute ulcerative colitis assessed as inhibition ratio of IL-23 protein expression at 50 mg/kg, IG via gavage measured after 7 days by ELISA relative to control; type: functional; parameters: scale not given: the % may be the effect or the level left; settings: time 7 day
Mus musculus [10] = assay: Antiinflammatory activity against DSS-induced C57BL/6 mouse model of acute ulcerative colitis assessed as inhibition ratio of IL-6 mRNA expression in colon tissue at 50 mg/kg, IG via gavage measured after 7 days by RT-qPCR analysis relative to control; type: functional; parameters: scale not given: the % may be the effect or the level left; settings: time 7 day
Mus musculus [11] = assay: Antiinflammatory activity against DSS-induced C57BL/6 mouse model of acute ulcerative colitis assessed as inhibition ratio of TNF-alpha mRNA expression in colon tissue at 50 mg/kg, IG via gavage measured after 7 days by RT-qPCR analysis relative to control; type: functional; parameters: scale not given: the % may be the effect or the level left; settings: time 7 day
Mus musculus [12] = assay: Anti-ulcerative colitis activity in IL-10-/- C57BL/6 mouse model of ulcerative colitis assessed as colon length recovery ratio at 50 mg/kg, IG via gavage for 8 weeks relative to control; type: functional
Mus musculus [13] = assay: Anti-ulcerative colitis activity in IL-10-/- C57BL/6 mouse model of ulcerative colitis assessed as histopathological score recovery ratio at 50 mg/kg, IG via gavage for 8 weeks relative to control; type: functional
Mus musculus [14] = assay: Antiinflammatory activity against IL-10-/- C57BL/6 mouse model of ulcerative colitis assessed as inhibition ratio of TNF-alpha protein expression at 50 mg/kg, IG via gavage and measured after 8 weeks by ELISA relative to control; type: functional; parameters: scale not given: the % may be the effect or the level left
Mus musculus [15] = assay: Antiinflammatory activity against IL-10-/- C57BL/6 mouse model of ulcerative colitis assessed as inhibition ratio of IL-1beta protein expression at 50 mg/kg, IG via gavage and measured after 8 weeks by ELISA relative to control; type: functional; parameters: scale not given: the % may be the effect or the level left
Mus musculus [16] = assay: Antiinflammatory activity against IL-10-/- C57BL/6 mouse model of ulcerative colitis assessed as inhibition ratio of IL-6 protein expression at 50 mg/kg, IG via gavage and measured after 8 weeks by ELISA relative to control; type: functional; parameters: scale not given: the % may be the effect or the level left
Mus musculus [17] = assay: Antiinflammatory activity against IL-10-/- C57BL/6 mouse model of ulcerative colitis assessed as inhibition ratio of IL-23 protein expression at 50 mg/kg, IG via gavage and measured after 8 weeks by ELISA relative to control; type: functional; parameters: scale not given: the % may be the effect or the level left
Mus musculus [18] = assay: Antiinflammatory activity against IL-10-/- C57BL/6 mouse model of ulcerative colitis assessed as inhibition ratio of TNF-alpha mRNA expression in colon tissue at 50 mg/kg, IG via gavage and measured after 8 weeks by RT-qPCR analysis relative to control; type: functional; parameters: scale not given: the % may be the effect or the level left
Mus musculus [19] = assay: Antiinflammatory activity against IL-10-/- C57BL/6 mouse model of ulcerative colitis assessed as inhibition ratio of IL-1beta mRNA expression in colon tissue at 50 mg/kg, IG via gavage and measured after 8 weeks by RT-qPCR analysis relative to control; type: functional; parameters: scale not given: the % may be the effect or the level left
Mus musculus [20] = assay: Antiinflammatory activity against IL-10-/- C57BL/6 mouse model of ulcerative colitis assessed as inhibition ratio of IL-6 mRNA expression in colon tissue at 50 mg/kg, IG via gavage and measured after 8 weeks by RT-qPCR analysis relative to control; type: functional; parameters: scale not given: the % may be the effect or the level left
Mus musculus [21] = assay: Antiinflammatory activity against IL-10-/- C57BL/6 mouse model of ulcerative colitis assessed as inhibition ratio of IL-23 mRNA expression in colon tissue at 50 mg/kg, IG via gavage and measured after 8 weeks by RT-qPCR analysis relative to control; type: functional; parameters: scale not given: the % may be the effect or the level left
Mus musculus [22] = assay: Anti-ulcerative colitis activity against DSS-induced ulcerative colitis C57BL/6 mouse model assessed as reduction in DAI score at 50 mg/kg, IG via gavage administered for 7 days and measured everyday (reference value: 4.0); type: functional; settings: time 7 day
Mus musculus [23] = assay: Anti-ulcerative colitis activity against DSS-induced ulcerative colitis C57BL/6 mouse model assessed as reduction in DAI recovery score ratio at 50 mg/kg, IG via gavage administered for 7 days and measured everyday relative to control; type: functional; parameters: scale not given: the % may be the effect or the level left; settings: time 7 day
Mus musculus [24] = assay: Antiinflammatory activity against DSS-induced C57BL/6 mouse model of acute ulcerative colitis assessed as inhibition of IL-23 mRNA expression in colon tissue administered intragastrically via gavage measured after 7 days by RT-qPCR analysis; type: functional, organism-based; settings: route ig, time 7.0 day, DDE = dose-dependent effect
Mus musculus [25] = assay: Anti-ulcerative colitis activity in IL-10-/- C57BL/6 mouse ulcerative colitis model assessed as animal survival at 50 mg/kg, IG via gavage for 8 weeks; type: functional, organism-based
Peritoneal macrophage = assay: Inhibition of LPS-induced TNFalpha production in mouse peritoneal macrophage at 2.6 uM incubated overnight by immunoassay relative to control; type: functional

## COc1cc(OC)c2c(c1)C(=O)CC2c1ccc(Cl)cc1 (stereo not given)
RAW264.7 [1]
  inhibition at 50 µM: -98.9%

## COc1cc2c(cc1OC)C(c1ccc(F)cc1)CC2=O (stereo not given)
RAW264.7 [1]
  inhibition at 50 µM: 80%

## COc1cc(OC)c2c(c1)C(=O)CC2c1ccc(F)cc1 (stereo not given)
RAW264.7 [1]
  inhibition at 50 µM: -4.2%

## COc1cc(OC)c2c(c1)C(=O)CC2c1ccc(Br)cc1 (stereo not given)
RAW264.7 [1]
  inhibition at 50 µM: -88.5%

## COc1cc(OC)c2c(c1)C(=O)CC2c1ccc(OC(C)(F)F)cc1 (stereo not given)
RAW264.7 [1]
  inhibition at 50 µM: 76.5%
RAW264.7 [2]
  IC50: 4.51 µM

## COc1cc(OC)c2c(c1)C(=O)CC2c1ccc(SC)cc1 (stereo not given)
RAW264.7 [1]
  inhibition at 50 µM: 79.8%
RAW264.7 [2]
  IC50: 3.92 µM

## COc1cc(OC)c2c(c1)C(=O)CC2c1ccc2cc(OC)ccc2c1 (stereo not given)
RAW264.7 [1]
  inhibition at 50 µM: 4.6%
RAW264.7 [2]
  IC50: 51.5 µM

## Cc1ccc(C2CC(=O)c3cc4c(cc32)OCO4)cc1 (stereo not given)
RAW264.7 [1]
  inhibition at 50 µM: 66.2%
RAW264.7 [2]
  IC50: 43.6 µM

## Nc1ccc(O)c(C(=O)O)c1 [MESALAMINE]
Mus musculus [3]
  Activity: 38.3%
Mus musculus [4]
  Activity: 39.4%
Mus musculus [5]
  Activity: 38.3%
Mus musculus [6]
  Activity: 43.2%
Mus musculus [7]
  Activity: 47.3%
Mus musculus [8]
  Activity: 53.5%
Mus musculus [9]
  Activity: 27.5%
Mus musculus [10]
  Activity: 46%
Mus musculus [11]
  Activity: 48.7%
Mus musculus [12]
  Activity: 32.4%
Mus musculus [13]
  Activity: 44.3%
Mus musculus [14]
  Activity: 42.2%
Mus musculus [15]
  Activity: 44%
Mus musculus [16]
  Activity: 54.9%
Mus musculus [17]
  Activity: 55.7%
Mus musculus [18]
  Activity: 30.1%
Mus musculus [19]
  Activity: 36.9%
Mus musculus [20]
  Activity: 46.3%
Mus musculus [21]
  Activity: 54.7%
Mus musculus [22]
  Activity: 3
Mus musculus [23]
  Activity: 25%
Mus musculus [24]
  Activity: Dde
Mus musculus [25]
  Activity: Active

## COc1ccc(C2CC(=O)c3cc(OC)cc(OC)c32)cc1 (stereo not given)
RAW264.7 [1]
  inhibition at 50 µM: 82.6%
RAW264.7 [2]
  IC50: 1.26 µM

## COc1ccc2c(c1)C(=O)CC2c1ccc(F)cc1 (stereo not given)
RAW264.7 [1]
  inhibition at 50 µM: 6.5%

## COc1cc(OC)cc(C2CC(=O)c3cc(OC)ccc32)c1 (stereo not given)
RAW264.7 [1]
  inhibition at 50 µM: 0.2%
RAW264.7 [2]
  IC50: 3.52 µM

## COc1ccc(C2c3c(OC)cc(OC)cc3C(=O)C2c2cc(OC)cc(OC)c2)cc1 (stereo not given)
RAW264.7 [1]
  inhibition at 50 µM: 62.3%
RAW264.7 [2]
  IC50: 46 µM

## COc1cc(OC)c2c(c1)C(=O)CC2c1ccc(OC(F)(F)F)cc1 (stereo not given)
RAW264.7 [1]
  inhibition at 50 µM: 4.4%

## COc1ccc([C@@H]2CC(=O)c3cc(OC)cc(OC)c32)cc1
RAW264.7 [2]
  IC50: > 50 µM

## COc1cc(OC)c2c(c1)C(=O)CC2c1cccs1 (stereo not given)
RAW264.7 [1]
  inhibition at 50 µM: 5.6%

## COc1cc(OC)c2c(c1)C(=O)CC2c1ccccc1C (stereo not given)
RAW264.7 [1]
  inhibition at 50 µM: 77.6%
RAW264.7 [2]
  IC50: 4 µM

## COc1cc(OC)c2c(c1)C(=O)CC2c1ccc2c(c1)OCO2 (stereo not given)
RAW264.7 [1]
  inhibition at 50 µM: 15.5%

## COc1cc(OC)c2c(c1)C(=O)CC2c1csc2ccccc12 (stereo not given)
RAW264.7 [1]
  inhibition at 50 µM: 5.9%

## COc1cc(C2CC(=O)c3cc(OC)c(OC)c(OC)c32)cc(OC)c1OC (stereo not given)
Peritoneal macrophage
  inhibition at 2.6 µM: 55%

## COc1cc2c(cc1OC)C(c1ccc(C)cc1)CC2=O (stereo not given)
RAW264.7 [1]
  inhibition at 50 µM: 55.2%
RAW264.7 [2]
  IC50: 47.3 µM

## O=C1CC(c2ccc(F)cc2)c2cc3c(cc21)OCO3 (stereo not given)
RAW264.7 [1]
  inhibition at 50 µM: 5.3%

## COc1cc(OC)c2c(c1)C(=O)CC2c1ccc(C)cc1 (stereo not given)
RAW264.7 [1]
  inhibition at 50 µM: 49.9%
RAW264.7 [2]
  IC50: 48.3 µM
